From ChEMBL document CHEMBL3046157, “Synthesis of new N-arylamino(2-furyl)methylphosphonic acid diesters, and in vitro evaluation of their cytotoxicity against esophageal cancer cells” (Med Chem Res, 2013)

Legend:
KYSE-270 = assay: Cytotoxicity against Homo sapiens (human) KYSE-270 cells assessed as inhibition of cell survival after 24 hr by MTT assay; format: functional, cell-based; settings: KYSE-270, 24 h
[1] = Cytotoxicity against Homo sapiens (human) KYSE-150 cells assessed as inhibition of cell survival after 24 hr by MTT assay; format: functional, cell-based; settings: KYSE-150, 24 h
[2] = Cytotoxicity against Homo sapiens (human) KYSE-30 cells assessed as inhibition of cell survival after 24 hr by MTT assay; format: functional, cell-based; settings: KYSE-30, 24 h
[3] = Cytotoxicity against Homo sapiens (human) HET-1A cells assessed as inhibition of cell survival after 24 hr by MTT assay; format: cell-based

Structure (SMILES) | IC50 (KYSE-270) [µM] | IC50 [1] [µM] | IC50 [2] [µM] | IC50 [3] [µM]
COc1ccccc1NC(c1ccco1)P(=O)(OC)OC (centres undefined) | 77.4 | 51.3 | 38 | > 400
COc1ccc(NC(c2ccco2)P(=O)(OC)OC)cc1 (centres undefined) | 224 | 166 | 316 | > 400
COc1ccc(NC(c2ccco2)P(=O)(Oc2ccccc2)Oc2ccccc2)cc1 (centres undefined) | 205 | 209 | > 400 | > 400
Cc1ccccc1NC(c1ccco1)P(=O)(Oc1ccccc1)Oc1ccccc1 (centres undefined) | > 400 | > 400 | 251 | > 400
Cc1cccc(NC(c2ccco2)P(=O)(Oc2ccccc2)Oc2ccccc2)c1 (centres undefined) | > 400 | > 400 | 380 | > 400
Cc1ccc(NC(c2ccco2)P(=O)(Oc2ccccc2)Oc2ccccc2)cc1 (centres undefined) | > 400 | > 400 | > 400 | > 400
COc1cccc(NC(c2ccco2)P(=O)(OCc2ccccc2)OCc2ccccc2)c1 (centres undefined) | 251 | 200 | 251 | > 400
Cc1cccc(/N=C/c2ccco2)c1 [N-FURFURYLIDENE-M-TOLUIDINE] | 111 | 50.1 | 158 | > 400
COc1ccccc1/N=C/c1ccco1 [N-FURFURYLIDENE-O-ANISIDINE] | > 400 | > 400 | > 400 | > 400
COc1ccc(/N=C/c2ccco2)cc1 [N-FURFURYLIDENE-P-ANISIDINE] | > 400 | > 400 | > 400 | > 400
Cc1ccc(/N=C\c2ccco2)cc1 [N-FURFURYLIDENE-P-TOLUIDINE] | 398 | 380 | > 400 | > 400
